*1 amine or outer side, *2 acyl side, *3 side chain or, on linkers, in order; H or OH if unused. Where a SMILES comes first, the peptide text is derived from it. Bridges are numbered along the chain shown (N, C = ends). [ ]: non-standard residue; d: D form. The star is where a group is joined. ξ: configuration not given here. pTerphenylCO(4''-OnC5H11) = CCCCCOc1ccc(-c2ccc(-c3ccc(C(=O)*)cc3)cc2)cc1; ξOrn(4,5-diOH) = O=C(C(CC(O)C(O)N[*:3])N[*:1])[*:2]; ξhTyr(βξ-OH,γξ-OH) = NC(C(=O)O)C(O)C(O)c1ccc(O)cc1; ξPro(3ξ-OH,4ξ-Me) = CC1CNC(C(=O)O)C1O; Hyp = O=C(O)[CH]1C[CH](O)CN1
What was measured:
[1] = Stability of freeze-dried formulations, related substances by reverse phase HPLC, storage at 40° C.; assay type: physicochemical; settings: 6(a) Potency 10, Poly 80(25), no B, no SA, Man(50)
Experimental: (§1) The stability of solution and freeze-dried formulations was evaluated by monitoring a sample of the formulation for the percent increase in related substances by reverse phase HPLC at initial, 2 weeks and 4 weeks of storage at 40° C.

[2] = Stability of solution formulations, related substances by reverse phase HPLC, storage at 40° C.; assay type: physicochemical
Experimental: as §1

CCCCCOc1ccc(-c2ccc(-c3ccc(C(=O)NC4CC(O)C(O)NC(=O)C5C(O)C(C)CN5C(=O)C(C(C)O)NC(=O)C(C(O)C(O)c5ccc(O)cc5)NC(=O)C5CC(O)CN5C(=O)C(C(C)O)NC4=O)cc3)cc2)cc1 (stereo not drawn) [Compound 6(a)] ({pTerphenylCO(4''-OnC5H11)}-[ξOrn(4,5-diOH)]T[Hyp][ξhTyr(βξ-OH,γξ-OH)]T[ξPro(3ξ-OH,4ξ-Me)]; lactam 1-C; configuration not given here)
% Related Substances ([1]; 2 wks): 4.85% | % Related Substances ([1]; 4 wks): 5.45% | Percent Related Substances ([2]; 6(a) 1 mg/ml, Poly 80(25), Ace(0.6), Man(50), 0 wks): 3.15% | Percent Related Substances ([2]; 6(a) 1 mg/ml, Poly 80(25), Ace(0.6), Man(50), 2 wks): 11.37% | Percent Related Substances ([2]; 6(a) 1 mg/ml, Poly 80(25), Ace(0.6), Man(50), 4 wks): 19.44% | Percent Related Substances ([2]; 6(a) 1 mg/ml, Poly 80(25), Ace(3), Man(50), 0 wks): 3.33% | Percent Related Substances ([2]; 6(a) 1 mg/ml, Poly 80(25), Ace(3), Man(50), 2 wks): 12.20% | Percent Related Substances ([2]; 6(a) 1 mg/ml, Poly 80(25), Ace(3), Man(50), 4 wks): 18.29% | Percent Related Substances ([2]; 6(a) 1 mg/ml, Poly 80(25), Ace(6), Man(50), 0 wks): 3.27% | Percent Related Substances ([2]; 6(a) 1 mg/ml, Poly 80(25), Ace(6), Man(50), 2 wks): 11.07% | Percent Related Substances ([2]; 6(a) 1 mg/ml, Poly 80(25), Ace(6), Man(50), 4 wks): 19.59% | Percent Related Substances ([2]; 6(a) 1 mg/ml, Poly 80(25), Cit(1.9), Man(50), 0 wks): 3.42% | Percent Related Substances ([2]; 6(a) 1 mg/ml, Poly 80(25), Cit(1.9), Man(50), 2 wks): 8.91% | Percent Related Substances ([2]; 6(a) 1 mg/ml, Poly 80(25), Cit(1.9), Man(50), 4 wks): 18.04% | Percent Related Substances ([2]; 6(a) 1 mg/ml, Poly 80(25), Cit(9.6), Man(50), 0 wks): 3.36% | Percent Related Substances ([2]; 6(a) 1 mg/ml, Poly 80(25), Cit(9.6), Man(50), 2 wks): 9.25% | Percent Related Substances ([2]; 6(a) 1 mg/ml, Poly 80(25), Cit(9.6), Man(50), 4 wks): 17.29% | Percent Related Substances ([2]; 6(a) 1 mg/ml, Poly 80(25), Cit(19.2), Man(50), 0 wks): 3.47% | Percent Related Substances ([2]; 6(a) 1 mg/ml, Poly 80(25), Cit(19.2), Man(50), 2 wks): 9.70% | Percent Related Substances ([2]; 6(a) 1 mg/ml, Poly 80(25), Cit(19.2), Man(50), 4 wks): 18.02% | Percent Related Substances ([2]; 6(a) 10 mg/ml, Poly 80(5) + Poly 20(20), Ace(6), 0 wks): 2.67% | Percent Related Substances ([2]; 6(a) 10 mg/ml, Poly 80(5) + Poly 20(20), Ace(6), 2 wks): 9.77% | Percent Related Substances ([2]; 6(a) 10 mg/ml, Poly 80(5) + Poly 20(20), Ace(6), 4 wks): 15.57% | Percent Related Substances ([2]; 6(a) 10 mg/ml, Poly 80(15) + Poly 20(10), Ace(6), 0 wks): 2.70% | Percent Related Substances ([2]; 6(a) 10 mg/ml, Poly 80(15) + Poly 20(10), Ace(6), 2 wks): 10.55% | Percent Related Substances ([2]; 6(a) 10 mg/ml, Poly 80(15) + Poly 20(10), Ace(6), 4 wks): 15.34% | Percent Related Substances ([2]; 6(a) 10 mg/ml, Poly 80(20) + Poly 20(5), Ace(6), 0 wks): 2.65% | Percent Related Substances ([2]; 6(a) 10 mg/ml, Poly 80(20) + Poly 20(5), Ace(6), 2 wks): 11.06% | Percent Related Substances ([2]; 6(a) 10 mg/ml, Poly 80(20) + Poly 20(5), Ace(6), 4 wks): 15.44% | Percent Related Substances ([2]; 6(a) 10 mg/ml, Poly 80(25) only, no buffer, 0 wks): 3.62% | Percent Related Substances ([2]; 6(a) 10 mg/ml, Poly 80(25) only, no buffer, 2 wks): 18.71% | Percent Related Substances ([2]; 6(a) 10 mg/ml, Poly 80(25) only, no buffer, 4 wks): 27.91% | Percent Related Substances ([2]; 6(a) 10 mg/ml, Poly 80(25), Ace(3), 0 wks): 2.51% | Percent Related Substances ([2]; 6(a) 10 mg/ml, Poly 80(25), Ace(3), 2 wks): 9.46% | Percent Related Substances ([2]; 6(a) 10 mg/ml, Poly 80(25), Ace(3), 4 wks): 14.39% | Percent Related Substances ([2]; 6(a) 10 mg/ml, Poly 80(25), Ace(6), co-solvent 20% PEG400, 0 wks): 2.83% | Percent Related Substances ([2]; 6(a) 10 mg/ml, Poly 80(25), Ace(6), co-solvent 20% PEG400, 2 wks): 9.69% | Percent Related Substances ([2]; 6(a) 10 mg/ml, Poly 80(25), Ace(6), co-solvent 20% PEG400, 4 wks): 14.35% | Percent Related Substances ([2]; 6(a) 10 mg/ml, Poly 80(25), Ace(6), co-solvent 20% PPG, 0 wks): 2.71% | Percent Related Substances ([2]; 6(a) 10 mg/ml, Poly 80(25), Ace(6), co-solvent 20% PPG, 2 wks): 10.58% | Percent Related Substances ([2]; 6(a) 10 mg/ml, Poly 80(25), Ace(6), co-solvent 20% PPG, 4 wks): 13.40% | Percent Related Substances ([2]; 6(a) 10 mg/ml, Poly 80(25), Ace(6), co-solvent 40% PEG400, 0 wks): 2.57% | Percent Related Substances ([2]; 6(a) 10 mg/ml, Poly 80(25), Ace(6), co-solvent 40% PEG400, 2 wks): 10.38% | Percent Related Substances ([2]; 6(a) 10 mg/ml, Poly 80(25), Ace(6), co-solvent 40% PEG400, 4 wks): 13.36% | Percent Related Substances ([2]; 6(a) 10 mg/ml, Poly 80(25), Ace(6), co-solvent 40% PPG, 0 wks): 2.72% | Percent Related Substances ([2]; 6(a) 10 mg/ml, Poly 80(25), Ace(6), co-solvent 40% PPG, 2 wks): 9.84% | Percent Related Substances ([2]; 6(a) 10 mg/ml, Poly 80(25), Ace(6), co-solvent 40% PPG, 4 wks): 12.65% | Percent Related Substances ([2]; 6(a) 10 mg/ml, Poly 80(25), no buffer, Man(50), 0 wks): 3.68% | Percent Related Substances ([2]; 6(a) 10 mg/ml, Poly 80(25), no buffer, Man(50), 2 wks): 16.65% | Percent Related Substances ([2]; 6(a) 10 mg/ml, Poly 80(25), no buffer, Man(50), 4 wks): 23.68% | Percent Related Substances ([2]; 6(a) 10 mg/ml, Poly 80(25), no buffer, co-solvent 1% PEG 3350, 0 wks): 3.68% | Percent Related Substances ([2]; 6(a) 10 mg/ml, Poly 80(25), no buffer, co-solvent 1% PEG 3350, 2 wks): 21.56% | Percent Related Substances ([2]; 6(a) 10 mg/ml, Poly 80(25), no buffer, co-solvent 40% PEG 400, 0 wks): 3.73% | Percent Related Substances ([2]; 6(a) 10 mg/ml, Poly 80(25), no buffer, co-solvent 40% PEG 400, 2 wks): 15.26% | Percent Related Substances ([2]; 6(a) 10 mg/ml, Poly 80(25), no buffer, co-solvent 40% PEG 400, 4 wks): 23.99%
